Results from patent US12391685B2, “Inhibitors of RNA-guided nuclease target binding and uses thereof” (THE BROAD INSTITUTE, INC., priority 2018, dated 2025).
pIC50: −log10 of the molar value.

Experiments:
[1] = Aggregation by dynamic light scattering in PBS; conditions: 40-100 μM tested
[2] = target: T1, dCas9-based transcription-activation complex (Streptococcus pyogenes serotype M1, UniProt Q99ZW2, D10A, form not given); assay: dCas9-based transcription activation of HBG1 in HEK293FT cells (RT-qPCR); format: cell-based, S. pyogenes; conditions: 20 μM
T1 construct: "dSpCas9|Feng Zhang lab|NA"; The MS2-p65-HSF1(-GFP) effector is a separate chain recruited through MS2 aptamers in the sgRNA
Protocol: Transcription activation experiments and quantitative RT-PCR analyses. HEK293FT cells were maintained in high glucose DMEM with glutamax (Life Technologies) and supplemented with 10% FBS (Life Technologies), 1% penicillin-streptomycin (Life Technologies) and 1 mM sodium pyruvate (Life Technologies). For transcription activation experiments, 20,000 cells/well were plated in a poly D-lysine-coated 96-well plate. The cells were transiently transfected with a 1:1:1 mass ratio of the dCas9 plasmid, MS2-P65-HSF1 effector plasmid and the sgRNA plasmid targeting the HBG1 gene or an RFP control plasmid. A total of 0.3 μg plasmid DNA was transfected using Lipofectamine 2000 (Life Technologies) according to manufacturer's protocol. Immediately after transfection, the cells were treated with an appropriate dose of the small-molecule inhibitors. A DMSO solution of compound (20 mM) was resuspended in the 10% FBS containing growth media and thoroughly mixedbefore adding to the cells. After 48 h the cells were lysed and 5 μL of the cell lysate was used to perform reverse transcription using the RevertAid RT Reverse Transcription Kit (Thermo Fischer Scientific) as described by Joung J. et al. qPCR reactions were performed to quantify RNA expression using the TaqMan probes (Life Technologies, HBG1/HBG2: Hs00361131_g1, ACTB: Hs01060665_g1) and TaqMan Fast Advanced Master Mix (Life Technologies) in 5 μL multiplexed reactions and 384-well format using the LightCycler 480 Instrument II (Roche). For each sample, four technical replicates were performed. Data were analyzed using the LightCycler 480 software (Roche) by the ΔΔCt method: Ct values for the gene of interest (HBG1) were normalized to Ct values for the housekeeping gene (ACTB), and fold-changes in the expression level of gene of interest were normalized to RFP-transfected control. The data is reported as mean±S.E.M. for technical replicates.

SpCas9:gRNA = target: T2, SpCas9:gRNA (Streptococcus pyogenes serotype M1, UniProt Q99ZW2); assay: In vitro DNA cleavage assay; format: biochemical, S. pyogenes; conditions: SpCas9 5 nM; read-out: apparent IC50
T2 construct: made in house; host or cells: E. coli Rosetta (DE3)
T2 sequence (Q99ZW2 whole entry): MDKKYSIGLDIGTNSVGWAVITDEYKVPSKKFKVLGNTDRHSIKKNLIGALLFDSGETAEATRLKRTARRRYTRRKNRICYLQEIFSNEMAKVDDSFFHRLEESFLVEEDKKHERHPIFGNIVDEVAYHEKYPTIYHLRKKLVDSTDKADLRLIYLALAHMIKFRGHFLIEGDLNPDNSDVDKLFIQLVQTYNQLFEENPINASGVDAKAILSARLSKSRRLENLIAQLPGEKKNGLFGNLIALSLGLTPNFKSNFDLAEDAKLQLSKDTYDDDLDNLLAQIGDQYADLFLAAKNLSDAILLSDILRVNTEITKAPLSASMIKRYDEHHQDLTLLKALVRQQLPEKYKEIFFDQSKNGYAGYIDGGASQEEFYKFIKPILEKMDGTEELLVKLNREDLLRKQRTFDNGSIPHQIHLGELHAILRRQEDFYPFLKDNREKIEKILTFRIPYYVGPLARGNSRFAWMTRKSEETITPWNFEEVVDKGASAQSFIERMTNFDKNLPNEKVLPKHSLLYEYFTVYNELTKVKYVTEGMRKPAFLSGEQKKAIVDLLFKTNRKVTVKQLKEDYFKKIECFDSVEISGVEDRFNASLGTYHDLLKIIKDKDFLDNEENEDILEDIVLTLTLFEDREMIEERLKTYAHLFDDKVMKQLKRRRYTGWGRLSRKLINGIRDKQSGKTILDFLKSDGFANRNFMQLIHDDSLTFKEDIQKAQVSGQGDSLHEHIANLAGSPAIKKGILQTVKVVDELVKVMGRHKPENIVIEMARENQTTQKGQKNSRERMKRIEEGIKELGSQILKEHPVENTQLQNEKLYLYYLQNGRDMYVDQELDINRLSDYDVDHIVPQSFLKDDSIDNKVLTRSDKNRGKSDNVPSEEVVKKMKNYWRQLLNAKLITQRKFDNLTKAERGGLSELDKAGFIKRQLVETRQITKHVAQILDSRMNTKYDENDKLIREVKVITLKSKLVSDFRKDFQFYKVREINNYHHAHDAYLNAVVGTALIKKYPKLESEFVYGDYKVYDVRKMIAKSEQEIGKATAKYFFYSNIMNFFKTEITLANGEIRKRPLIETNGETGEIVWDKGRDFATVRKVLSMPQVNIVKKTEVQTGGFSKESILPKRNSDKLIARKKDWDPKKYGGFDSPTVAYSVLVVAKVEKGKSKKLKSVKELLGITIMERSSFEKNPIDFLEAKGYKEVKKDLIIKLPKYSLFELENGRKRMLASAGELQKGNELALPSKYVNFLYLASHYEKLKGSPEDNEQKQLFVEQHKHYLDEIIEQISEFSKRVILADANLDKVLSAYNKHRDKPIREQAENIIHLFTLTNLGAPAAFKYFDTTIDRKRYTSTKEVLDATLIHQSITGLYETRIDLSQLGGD
Protocol: In vitro DNA cleavage assay. Inhibition of SpCas9 nuclease activity was assessed in an in vitro DNA cleavage assay with a linearized substrate plasmid DNA. A 94 μL of preformed SpCas9:gRNA (5.3 nM) was incubated with a 3 μL DMSO solution of BRD0539 at the indicated concentrations (13.6-25 μM) for 30 min at room temperature followed by addition of 3 μL of 33.3 nM substrate DNA and incubation for additional 30 min at 37° C. The reaction was quenched by the addition of 2 μL of Proteinase K (Qiagen) for 10 min and then analyzed by 1% agarose gel and visualized by SYBR Gold (Thermofisher). The bands were quantified by Image J and plotted in GraphPad Prism.

Plasma stability assay = format: in vitro ADME; conditions: 5 μM, 50% human plasma in PBS, 5 h
Protocol: Plasma stability assay. Human plasma stability of the compounds was performed following a reported protocol (Di et al., 2005). BRD0539 (5 μM) was incubated with 50% human plasma (K2 EDTA, BioreclamationIVT) in PBS for 5 h in triplicate. Eucatropine (Aldrich) and verapamil (Acros) were included as the positive and negative control, respectively. The samples were analyzed by UPLC-MS (AB Sciex 4500 with Waters Acquity FTN) with compounds detected by […] mass spectrometer. All integration and analysis were performed using DiscoveryQuant software.

SpCas9 = SpCas9 (Streptococcus pyogenes serotype M1, UniProt Q99ZW2); assay: Cellular thermal shift assay (CETSA) in WM793 melanoma cells; format: cell-based, S. pyogenes; conditions: 15 μM, 24 h, WM793 cells stably expressing SpCas9
Sequence of SpCas9 (Q99ZW2 whole entry): as above
Protocol: Cellular Thermal Shift Assay (CETSA). Approximately 1× 10^6 cells pre-incubated with either DMSO or 15 μM BRD0539 for 24 h were resuspended in PBS and transferred to 200 μL PCR tubes. The suspended cells were heated to a different temperature for 3 min followed by lysis in 100 μL RIPA buffer containing protease inhibitors at 4° C. for 30 min. The clear cell lysate was collected by centrifuging the suspensions at 20,000×g for 20 min. The supernatant was transferred to a fresh tube and processed for Western blotting. Western blotting was performed using SDS-PAGE. In a typical experiment, 10 μg of proteins were electrophoresed on a 4-12% Bis-Tris gel and proteins were transferred to a PVDF membrane and probed with primary anti-SpCas9 antibody (abcam #ab191468). The membrane was imaged and bands were quantified using the LI-COR Odyssey imaging system. The CETSA curves were fitted with the equation, y=(U-L)/(1+e^(−(A/T−1)B))+L where, U and L are the upper and lower asymptotes, A is a half-way temperature, and B controls the slope of the sigmoid; temperature T is expressed in K. After the fitting, the data were re-normalized by dividing by U and the Tm was calculated using the formula Tm=AB/(B+log(1−2L/U)).

Structure (SMILES): OC[C@H]1Nc2ccc(-c3cccc(F)c3)cc2[C@H]2[C@@H]1CCN2Cc1ccncc1 [BRD7087, ((3aR,4S,9bR)-8-(3-Fluorophenyl)-1-(pyridin-4-ylmethyl)-2,3,3a,4,5,9b-hexahydro-1H-pyrrolo[3,2-c]quinolin-4-yl) methanol]
- concentration beyond which aggregates form [1]: > 80 µM
- no detectable aggregation up to [1]: ~60 µM
- inhibition of transcriptional activation [2]: ~60%

Structure (SMILES): Cc1ccc(S(=O)(=O)N2CC[C@@H]3[C@H](CO)Nc4ccc(-c5ccccc5F)cc4[C@@H]32)cc1 [BRD0539, ((3aR,4R,9bR)-8-(2-fluorophenyl)-1-tosyl-2,3,3a,4,5,9b-hexahydro-1H-pyrrolo[3,2-c]quinolin-4-yl) methanol]
- pIC50 (SpCas9:gRNA): 4.66
- human plasma stability (in words) (Plasma stability assay): stable in human plasma
- lowering in the melting temperature of SpCas9 (SpCas9): ~2.5 °C
